The values that follow come from patent US6642177B1, “Sarcoslnates as glufosinate adjuvants” (Hampshire Chemical Corp., priority 1998, dated 2003).

What all share (assay type): in vivo
Series [1] deals with Setia = Foxtail., Giant - setaria. The experiment in a line: % control of giant foxtail 27 days after treatment. The conditions noted are these: rate 0.32 lbs. ai/A.
The subject of series [2] is Porol = Purslane, Common - Portulaca oleraca. As to the kind of experiment: % control of common purslane 27 days after treatment. To be noted: rate 0.32 lbs. ai/A.
Series [3] concerns Amabl = Pigweed, Prostrate - Amaranthus blitoides. The experiment in a line: % control of prostrate pigweed 27 days after treatment. To be noted: rate 0.32 lbs. ai/A.
Series [4] has as its system Polpy = Smartweed, Pennsylvania - Polygonium pensylvanicum. The experiment in a line: % control of Pennsylvania smartweed 27 days after treatment. The conditions noted are these: rate 0.32 lbs. ai/A.
Series [5] relates to Setiu + Foxtail, Yellow - Sataria Leutescens. As to the kind of experiment: % control of yellow foxtail 27 days after treatment. To be noted: rate 0.32 lbs. ai/A.
Series [6] concerns Plant Species (Setia, Porol, Amabl, Polpy, Sotlu); nuisance weeds. The experiment in a line: % control over the five plant species (total, average) 27 days after treatment. The conditions noted are these: rate 0.32 lbs. ai/A.
Series [7] has as its system glufosinate tolerant field corn variety Pioneer 34A55. The experiment in a line: Phytotoxicity rating on glufosinate tolerant field corn (chlorosis, necrosis, abnormal growth). The conditions noted are these: 1.46 Lbs ai/acre, 10 ml into the whorl.
Protocol: Seeds were germinated in 4 inch pots and maintained for one month with regular watering and temperatures to simulate field conditions. […] Each treatment was replicated four times in a randomized complete block design. […] The volume of 10 ml was selected to fill the whorl of the largest plant in the study, all others were filled to running over.
An application volume of 15 gal/acre was used to determine the mix concentration used.
The treatments were evaluated for phytotoxicity in the form of chlorosis, necrosis and abnormal growth by visually inspecting each plant. When damage was present, each plant was given a damage rating from 0 to 10 with 0 indicating no effect and 10 indicating death.

For the substance “2-amino-4-(hydroxymethyl phosphinyl) butanoic acid [Glufosinate]”, the “% Control 27 Days After Treatment, Setia” value in series [1] came out at 61.67%. Also, the “% Control 27 Days After Treatment, Porol” value in series [2] is given as 78.33%. For the same substance, the “% Control 27 Days After Treatment, Amabl” value in series [3] turned out to be 73.33%. Further, the “% Control 27 Days After Treatment, Polpy” value in series [4] is on record as 81.67%. In series [5], the “% Control 27 Days After Treatment, Sotlu” value was determined as 60.00%. In series [6] (average over five plant species), the “% Control 27 Days After Treatment, Average” value worked out at 71.00%. The “% Control 27 Days After Treatment, Total” value in series [6] (sum over five plant species) was found to be 355.00%. For the same substance, in series [7], the “Ratings 20 days after treatment (damage rating 0 to 10, 0 no effect, 10 death)” value is reported as 0.8 b.
